Literature values, collected in patent publication US20250367112A1, “DRUG DELIVERY COMPOSITION FOR PROMOTING TISSUE REGENERATION AND KIT FOR DRUG DELIVERY COMPRISING SAME” (T&R BIOFAB CO., LTD., priority 2023, published 2025).
Counter-ions that a name gives are not always drawn. Like-named read-outs stand apart in the source and are kept apart here.

in vivo half-life (epidural injection): 4.2 ± 1 h
in vivo half-life (intravenous injection): 1.8 ± 0.7 h
SMILES: CCCN1CCCC[C@H]1C(=O)Nc1c(C)cccc1C [Ropivacaine HCl]
